Laboratory results from US8529951B1, “Elastogenic cues and methods for using same” (priority 2007, dated 2013).

Assays:
RASMCs [1] = assay: RASMC proliferation (fluorometric DNA assay of cell layers); assay type: cell-based, rat
Description: At 1 and 21 days of culture, the DNA content of the cell layers was measured to determine the proliferation of SMCs and to normalize the measured amounts of synthesized matrix (elastin, collagen). The fluorometric DNA assay, described previously by Labarca and Paigen (Labarca C, Paigen K. A simple, rapid, and sensitive DNA assay procedure. Anal Biochem. 1980; 102:344-52), was performed on cell layers processed as described previously (Joddar B, Ramamurthi A. Fragment size- and dose-specific effects of hyaluronan on matrix synthesis by vascular smooth muscle cells. Biomaterials. 2006; 27(15): 2994-3004). Actual cell counts were then calculated on the basis of an estimated 6 pg DNA/cell.

RASMCs [2] = assay: Collagen synthesis by RASMCs (hydroxy-proline assay); assay type: cell-based, rat
lysyl oxidase (LOX) [3] = target: T1, lysyl oxidase (LOX) (Rattus norvegicus, UniProt P16636); assay: LOX functional activity (fluorometric Amplex red assay of spent medium); assay type: cell-based; conditions: 21 days
T1 construct: spent culture medium pooled at day 21 of a culture was assayed; endogenous in cells; host or cells: adult rat aortic smooth muscle cells (RASMCs; Cell Applications), spent culture medium
T1 sequence (P16636 163-411): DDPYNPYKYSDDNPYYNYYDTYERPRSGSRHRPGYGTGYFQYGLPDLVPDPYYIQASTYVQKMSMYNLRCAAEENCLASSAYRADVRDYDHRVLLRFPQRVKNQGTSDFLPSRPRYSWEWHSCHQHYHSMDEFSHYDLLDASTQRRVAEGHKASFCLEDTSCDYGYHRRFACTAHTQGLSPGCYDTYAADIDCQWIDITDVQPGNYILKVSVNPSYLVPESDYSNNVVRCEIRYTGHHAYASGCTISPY
Description: To determine LOX functional activity, spent culture medium pooled at day 21 of a culture was assayed using a fluorometric assay based on generation of H2O2 when LOX acts on a synthetic substrate. H2O2 was detected using an Amplex® red kit (Molecular Probes, OR,). The fluorescence intensities were recorded with excitation and emission wavelengths at 560 nm and 590 nm, respectively

RASMCs [4] = assay: SDS-PAGE/Western blot of soluble tropoelastin in spent medium; assay type: cell-based, rat; conditions: Example 1, n=3/case
Description: SDS-PAGE and Western Blot were performed to confirm the observed biochemical trends for synthesis of soluble tropoelastin. Briefly, the aliquots of spent medium removed and pooled at bi-weekly intervals over the 21-day culture period, were lyophilized, assayed for protein content using a DC protein assay kit (Biorad Corporation, Hercules, Calif.), and subjected to SDS-PAGE and Western Blot. Optimized sample amounts (20 μg) were appropriately mixed and boiled (100° C., 5 min) with a loading buffer (2% w/v Sodium Dodecyl Sulfate (SDS), 62 mM Trizma base, 10% v/v Glycerol, 600 mM dithiothreitol), flash-spun in an ultracentrifuge (500 g, 2 min) and loaded under reduced conditions onto 10% w/v polyacrylamide gels (Novex Tris-Glycine gels, Invitrogen Corporation, Carlsbad, Calif.), with prestained protein standards ranging between 10-190 kDa (Benchmark Pre-stained Protein Ladder, Invitrogen) and western blot standards ranging between 20-220 kDa (MagicMark XP Western Protein Standards, Invitrogen). […] Following electrophoresis, the protein bands were transferred onto a PVDF pre-wetted membrane, developed, imaged using trans-white light, and quantified using the Alpha Innotech imaging software (Alpha Ease FC; Chemi-imager 4400) as described previously. […]

RASMCs [5] = assay: Tropoelastin synthesis by RASMCs (Fastin assay of pooled spent medium); assay type: cell-based, rat; conditions: Example 1, 21-day culture, n=3
RASMCs [6] = assay: Desmosine content of cell-matrix layers (ELISA); assay type: cell-based, rat; conditions: Example 1
Description: Desmosine content of the cell-matrix layers was determined in expectation that it would correlate with the amounts of crosslinked elastin and serve as an indirect confirmation of the earlier observed biochemical trends, with regard to synthesis of matrix elastin. To assess desmosine content, compounded test and control cell pellets were digested with collagenase type VII (Sigma; 12 h, 37° C.) and re-centrifuged (3000 g, 10 min, 4° C.) to obtain a supernatant (SI) and a pellet. This pellet was digested with pancreatic porcine elastase type III (Sigma; 12 h, 37° C.) to obtain a soluble peptide fraction (SII). Fractions SI and SII were pooled together, acid-hydrolyzed with 6 N HCl (110° C., 16 h), dried under a stream of inert N2, re-constituted in water and the desmosine content determined by ELISA as previously done.

RASMCs [7] = assay: Matrix elastin synthesis by RASMCs (Fastin assay; alkali-soluble and alkali-insoluble fractions); conditions: for increase of total matrix production: Example 3, growth factor only (no HA), 3 weeks
RASMCs [8] = assay: Elastase degradation of elastin isolated from cultured cell layers; assay type: cell-based, rat; conditions: 8-hour enzymatic digestion
Description: Enzymatic degradation studies were performed to compare the impact of HA oligomer exposure and their mode of delivery on elastin matrix quality, particularly their resistance to enzymatic breakdown. Elastin matrices isolated by alkali digestion of aortae explanted from adult Sprague-Dawley rats served as additional controls for these studies. Briefly, adult rat aortal segments were removed from euthanized rats, from arch to the celiac axis, under sterile conditions, and spliced lengthwise in petri dishes containing cold phosphate-buffered saline (PBS) containing 2 mM Ca^2+. These spliced sections were then transferred to a dish containing 1-2 ml of collagenase (2 mg/ml; Worthington, Lakewood, N.J.) and incubated for 10 minutes at 37° C. DMEM:F12 media was then added to these collagenase treated samples and mixed well with gentle pipetting. Isolated aortal segments were further chopped crosswise into […] pieces and transferred using fine needles onto sterile petri dishes and stored in PBS at 4° C. until further use. Cell layers were scraped off the culture wells, pelleted by centrifugation (2000 g, 15 min), and stored at −20° C. in PBS until further use (n=9/case).
HA tetramers as described above in Example 1 were tethered onto 4-well glass chamber slides (Nalge Nunc International, Naperville, Ill.). […]

lysyl oxidase (LOX) [9] = assay: LOX protein synthesis (Western blot of spent medium); conditions: Example 3, 16 day culture, alone or together with HA fragments

O=S(=O)([O-])[O-].[Cu+2] [copper sulfate]
cell proliferation (RASMCs [1]; Example 4, 0.01 M copper sulfate and HA fragments): stimulated | total collagen output per ng DNA vs. non-additive controls (RASMCs [2]; Example 4, 0.01 M alone): 0.5±0.04 fold | collagen synthesis vs. controls (RASMCs [2]; Example 4, 0.01 M copper sulfate in the presence of oligomers, VLMW and HMW HA): consistently suppressed | total collagen output per ng DNA vs. non-additive controls (RASMCs [2]; Example 4, 0.1 M alone): 4.1±0.4 fold | LOX activity vs. controls (lysyl oxidase (LOX) [3]; Example 4, 0.01 M alone): 1.4±0.2 | basal LOX functional activity (lysyl oxidase (LOX) [3]; Example 4, 0.1 M alone or concurrent with HA fragments (except VLMW HA)): no significant effect

CC(=O)N[C@H]1[C@H](O[C@H]2[C@H](O)[C@@H](O)[C@H](O[C@H]3[C@H](O)[C@@H](CO)OC(O)[C@@H]3NC(C)=O)O[C@@H]2C(=O)O)O[C@H](CO)[C@@H](O)[C@@H]1O[C@@H]1O[C@H](C(=O)O)[C@@H](O)[C@H](O)[C@H]1O (stereo partly drawn) [pure HA 4-mer]
normalized tropoelastin band intensity (pixel intensity per ng DNA) (RASMCs [4]): 0.15±0 | tropoelastin output (DNA normalized) relative to respective control cultures (RASMCs [5]): 1.63±0.06 times | proliferation, times number at 1 day (RASMCs [1]; Example 1, 21 days of culture, n=3): 1.66±0.05 times number at 1 day | desmosine amount normalized to DNA and to non-HA controls (RASMCs [6]): 4.76±0.10 | DNA normalized matrix elastin output relative to controls (RASMCs [7]; Example 1, 21-day culture): 2.7±0.3 times | collagen production (DNA normalized) relative to respective controls (RASMCs [2]; Example 1, 21-day culture): 2.0±0.1 times | % weight loss of cell pellet elastin on elastase digestion (RASMCs [8]; exogenous HA 4 mers): 35% | % weight loss of cell pellet elastin on elastase digestion (RASMCs [8]; surface-tethered HA 4 mers): 50%

O=S(=O)([O-])[O-].[Na+].[Na+] [sodium sulfate, reference compound]
RASMC proliferation vs. controls (RASMCs [1]; Example 4, alone, irrespective of the added dose (0.01 and 0.1 M)): no effect | total collagen output per ng DNA vs. non-additive controls (RASMCs [2]; Example 4, 0.01 M alone): 1.1±0.13 fold | total collagen output per ng DNA vs. non-additive controls (RASMCs [2]; Example 4, 0.1 M alone): 0.94±0.15 fold

IGF-1: insulin-like growth factor, added at 500 ng/ml
inhibition of cell proliferation (RASMCs [1]; Example 3, 21 days, all cases except in the presence of oligomers and HMWHA): 50% | elastin matrix production compared to control (RASMCs [7]; Example 3, IGF-1 only with no HA): did not upregulate | increase of total matrix production (RASMCs [7]): 150±20%

TGF-β: transforming growth factor, added at 1 ng/ml
crosslinking of soluble tropoelastin into matrix elastin (RASMCs [7]; Example 3): significantly enhance | increase of total matrix production (RASMCs [7]): 270±12% | LOX protein synthesis (lysyl oxidase (LOX) [9]): enhanced | collagen production (RASMCs [2]; Example 3, in inverse correlation to the added HA fragment size): inhibit
